Tests used:
[1] = system: E. faecalis; assay: Biological activity against bacterial strains: E. faecalis; assay type: cell-based, Enterococcus faecalis; settings: strain ATCC51575
[2] = system: S. aureus; assay: Biological activity against bacterial strains: S. aureus; assay type: cell-based, Staphylococcus aureus; set-up: unit not given here; settings: for Biological Activity, S. aureus ATCC6538p: strain ATCC6538p; for Biological Activity, S. aureus ATCC14154*: strain ATCC14154, macrolide resistant strain; for Biological Activity, S. aureus ATCC29213: strain ATCC29213; for Biological Activity, S. aureus ATCC33591*: strain ATCC33591, macrolide resistant strain; for Biological Activity, S. aureus ATCCBAA-39*: strain ATCCBAA-39, macrolide resistant strain; for Biological Activity, S. aureus ATCCBAA-44*: strain ATCCBAA-44, macrolide resistant strain
[3] = system: S. pneumoniae; assay: Biological activity against bacterial strains: S. pneumoniae; assay type: cell-based, Streptococcus pneumoniae; set-up: Biological Activity, S. pneumoniae ATCC6301 / Biological Activity, S. pneumoniae ATCC700671 / Biological Activity, S. pneumoniae ATCC700676* / Biological Activity, S. pneumoniae ATCC700677* / Biological Activity, S. pneumoniae ATCC700905* / Biological Activity, S. pneumoniae ATCC700906* / Biological Activity, S. pneumoniae ATCC49619: unit not given here; settings: for Biological Activity, S. pneumoniae ATCC6301: strain ATCC6301; for Biological Activity, S. pneumoniae ATCC49619: strain ATCC49619; for Biological Activity, S. pneumoniae ATCC700671: strain ATCC700671; for Biological Activity, S. pneumoniae ATCC700676*: strain ATCC700676, macrolide resistant strain; for Biological Activity, S. pneumoniae ATCC700677*: strain ATCC700677, macrolide resistant strain; for Biological Activity, S. pneumoniae ATCC700905*: strain ATCC700905, macrolide resistant strain; for Biological Activity, S. pneumoniae ATCC700906*: strain ATCC700906, macrolide resistant strain
[4] = system: S. epidermidis; assay: Biological activity against bacterial strains: S. epidermidis; assay type: cell-based, Staphylococcus epidermidis; settings: strain ATCC12228

| SMILES | Biological Activity, E. faecalis ATCC51575 [1] | Biological Activity, S. aureus ATCC6538p [2] | Biological Activity, S. aureus ATCC14154* [2] | Biological Activity, S. aureus ATCC29213 [2] | Biological Activity, S. aureus ATCC33591* [2] | Biological Activity, S. aureus ATCCBAA-39* [2] | Biological Activity, S. aureus ATCCBAA-44* [2] | Biological Activity, S. pneumoniae ATCC6301 [3] | Biological Activity, S. pneumoniae ATCC49619 [3] | Biological Activity, S. pneumoniae ATCC700671 [3] | Biological Activity, S. pneumoniae ATCC700676* [3] | Biological Activity, S. pneumoniae ATCC700677* [3] | Biological Activity, S. pneumoniae ATCC700905* [3] | Biological Activity, S. pneumoniae ATCC700906* [3] | Biological Activity, S. epidermidis ATCC12228 [4] |
| --- | --- | --- | --- | --- | --- | --- | --- | --- | --- | --- | --- | --- | --- | --- | --- |
| CCC1OC(=O)CC(O)C(C)C(OC2OC(C)C(O)C(N(C)C)C2O)C(CC=O)CC(C)C(=NOCC=Cc2cnc3ccccc3c2)C=CC(C)=CC1CO (single isomer, unassigned) [Compound F] | >12.5 | 0.098 | 0.39 | 0.39 | >12.5 | >12.5 | >12.5 | 0.025 | 0.025 | 0.049 | 0.049 | >12.5 | 0.049 | >12.5 | 0.049 |
| CC[C@H]1OC(=O)C[C@@H](O)[C@H](C)[C@@H](O[C@@H]2O[C@H](C)[C@@H](O[C@H]3C[C@@](C)(O)[C@@H](O)[C@H](C)O3)[C@H](N(C)C)[C@H]2O)[C@@H](CC=O)C[C@@H](C)C(=O)/C=C/C(C)=C/[C@@H]1CO[C@@H]1O[C@H](C)[C@@H](O)[C@@H](OC)[C@H]1OC [Tyl, tylosin, reference compound] | >12.5 | 0.20 | 1.56 | 1.56 | >12.5 | >12.5 | >12.5 | 0.098 | 0.098 | 0.20 | 0.20 | >12.5 | 0.20 | >12.5 | 0.39 |
| CCC1OC(=O)CC(O)C(C)C(OC2OC(C)C(O)C(N(C)C)C2O)C(CCN2CC(C)CC(C)C2)CC(C)C(=NOCc2ccc(F)cc2)C=CC(C)=CC1COC1OC(C)C(O)C(OC)C1OC (single isomer, unassigned) [Compound P] | >12.5 | 0.39 | 6.25 | 0.78 | >12.5 | >12.5 | >12.5 | 0.39 | 0.78 | 0.78 | 3.12 | 6.25 | 3.12 | 12.5 | 0.78 |
| CCC1OC(=O)CC(O)C(C)C(OC2OC(C)C(O)C(N(C)C)C2O)C(CCN2CC(C)CC(C)C2)CC(C)C(=NOCCCCOc2ccc3ncccc3c2)C=CC(C)=CC1COC1OC(C)C(O)C(OC)C1OC (single isomer, unassigned) [Compound N] | >12.5 | 0.78 | 1.56 | 3.12 | >12.5 | >12.5 | >12.5 | 0.025 | 0.098 | 0.049 | 1.56 | 6.25 | 0.78 | >12.5 | 3.12 |
| CCC1OC(=O)CC(O)C(C)C(OC2OC(C)C(O)C(N(C)C)C2O)C(CC=O)CC(C)C(=NOCCCCOc2ccc3ncccc3c2)C=CC(C)=CC1CO (stereo not drawn) [Compound B] | >12.5 | 0.20 | 0.78 | 0.78 | >12.5 | >12.5 | >12.5 | 0.025 | 0.01 | 0.025 | 0.025 | 0.39 | 0.025 | >12.5 | 0.20 |
| CCC1OC(=O)CC(O)C(C)C(OC2OC(C)C(O)C(N(C)C)C2O)C(CCN2CC(C)CC(C)C2)CC(C)C(=NOCCCCOc2ccc3ncccc3c2)C=CC(C)=CC1CO (single isomer, unassigned) [Compound U] | >12.5 | >12.5 | >12.5 | >12.5 | >12.5 | >12.5 | >12.5 | 6.25 | 12.5 | 12.5 | >12.5 | >12.5 | 12.5 | >12.5 | >12.5 |
| CCC1OC(=O)CC(O)C(C)C(OC2OC(C)C(O)C(N(C)C)C2O)C(CC=O)CC(C)C(=NOCC(=O)N2CCN(c3ccccc3)CC2)C=CC(C)=CC1CO (stereo not drawn) [Compound C] | >12.5 | 0.78 | 1.56 | 1.56 | >12.5 | >12.5 | >12.5 | 0.025 | 0.01 | 0.025 | 0.39 | 6.25 | 0.20 | >12.5 | 0.20 |
| CCC1OC(=O)CC(O)C(C)C(OC2OC(C)C(O)C(N(C)C)C2O)C(CCN2CC(C)CC(C)C2)CC(C)C(=NOCc2ccc(F)cc2)C=CC(C)=CC1CO (stereo not drawn) [Compound W] | >12.5 | 0.78 | 3.12 | 3.12 | >12.5 | >12.5 | >12.5 | 0.39 | 0.39 | 0.39 | 0.39 | >12.5 | 0.39 | >12.5 | 3.12 |
| CCC1OC(=O)CC(O)C(C)C(OC2OC(C)C(O)C(N(C)C)C2O)C(CCN2CC(C)CC(C)C2)CC(C)C(=NOCCCCOc2ccc3ncccc3c2)C=CC(C)=CC1CO (single isomer, unassigned) [Compound T] | >12.5 | 6.25 | >12.5 | 12.5 | >12.5 | >12.5 | >12.5 | 1.56 | 6.25 | 3.12 | 6.25 | >12.5 | 6.25 | >12.5 | >12.5 |
| CCC1OC(=O)CC(O)C(C)C(OC2OC(C)C(O)C(N(C)C)C2O)C(CC=O)CC(C)C(=NOCC#Cc2cnc3ccccc3c2)C=CC(C)=CC1CO (single isomer, unassigned) [Compound D] | >12.5 | 0.098 | 0.78 | 0.39 | >12.5 | >12.5 | >12.5 | 0.025 | 0.049 | 0.049 | 0.049 | >12.5 | 0.049 | >12.5 | 0.20 |
